Source: the supplement of paper PMC6045584
± gives the standard deviation of the averaged measurements.

Key:
PLX-4720 = compound: CCCS(=O)(=O)Nc1ccc(F)c(C(=O)c2c[nH]c3ncc(Cl)cc23)c1F [PLX-4720]; assay: surviving fraction relative to DMSO-only wells; higher = less growth inhibition; conditions: exposure time: 5 days
Outline: (§1)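 Tumour cell lines were grown to log phase and seeded at 250–500 cells per well in 384-well plates. They were exposed continuously to inhibitors at 0.5, 1, 5, 10, 50, 100, 500 and 1000 nM for five days, beginning 24 hours after seeding. Surviving fraction is CellTiter-Glo luminescence normalised to the median of DMSO-only wells.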

[1] = compound: O=C(NOCC1CC1)c1ccc(F)c(F)c1Nc1ccc(I)cc1Cl; assay: as above; conditions: exposure time: 5 days
Outline: as §1

SUM149 BREAST
surviving fraction (PLX-4720; 10 nM): 0.827 ± 0.063
surviving fraction (PLX-4720; 50 nM): 0.289 ± 0.02
surviving fraction (PLX-4720; 100 nM): 0.991 ± 0.094
surviving fraction (PLX-4720; 500 nM): 0.821 ± 0.05
surviving fraction (PLX-4720; 1000 nM): 0.919 ± 0.011
surviving fraction ([1]; 0.5 nM): 0.375 ± 0.011
surviving fraction ([1]; 1 nM): 1.04 ± 0.067
surviving fraction ([1]; 5 nM): 0.908 ± 0.059
surviving fraction ([1]; 10 nM): 0.912 ± 0.032
surviving fraction ([1]; 50 nM): 0.512 ± 0.024
surviving fraction ([1]; 100 nM): 0.755 ± 0.1
surviving fraction ([1]; 500 nM): 0.407 ± 0.031
surviving fraction ([1]; 1000 nM): 0.277 ± 0.053

SUM149.B1*.S BREAST
surviving fraction (PLX-4720; 0.5 nM): 0.392 ± 0.028
surviving fraction (PLX-4720; 1 nM): 0.793 ± 0.046
surviving fraction (PLX-4720; 5 nM): 0.787 ± 0.036
surviving fraction (PLX-4720; 10 nM): 0.8912 ± 0.0055
surviving fraction (PLX-4720; 50 nM): 0.517 ± 0.056
surviving fraction (PLX-4720; 100 nM): 0.968 ± 0.042
surviving fraction (PLX-4720; 500 nM): 0.863 ± 0.038
surviving fraction (PLX-4720; 1000 nM): 1.02 ± 0.015
surviving fraction ([1]; 0.5 nM): 0.5813 ± 0.0045
surviving fraction ([1]; 1 nM): 0.956 ± 0.018
surviving fraction ([1]; 5 nM): 0.835 ± 0.058
surviving fraction ([1]; 10 nM): 0.945 ± 0.034
surviving fraction ([1]; 50 nM): 0.6543 ± 0.0045
surviving fraction ([1]; 100 nM): 0.789 ± 0.0088
surviving fraction ([1]; 500 nM): 0.503 ± 0.024
surviving fraction ([1]; 1000 nM): 0.459 ± 0.05

SUM159 BREAST
surviving fraction (PLX-4720; 0.5 nM): 1.04 ± 0.28
surviving fraction (PLX-4720; 1 nM): 1.08 ± 0.28
surviving fraction (PLX-4720; 5 nM): 1.04 ± 0.21
surviving fraction (PLX-4720; 10 nM): 1.08 ± 0.23
surviving fraction (PLX-4720; 50 nM): 1.08 ± 0.25
surviving fraction (PLX-4720; 100 nM): 1.1 ± 0.26
surviving fraction (PLX-4720; 500 nM): 1.1 ± 0.24
surviving fraction (PLX-4720; 1000 nM): 1.11 ± 0.21
surviving fraction ([1]; 0.5 nM): 1.06 ± 0.29
surviving fraction ([1]; 1 nM): 1.03 ± 0.12
surviving fraction ([1]; 5 nM): 1.11 ± 0.36
surviving fraction ([1]; 10 nM): 1.03 ± 0.24
surviving fraction ([1]; 50 nM): 0.84 ± 0.2
surviving fraction ([1]; 100 nM): 0.726 ± 0.1
surviving fraction ([1]; 500 nM): 0.518 ± 0.11
surviving fraction ([1]; 1000 nM): 0.455 ± 0.023

SYO1 SYNOVIAL
surviving fraction (PLX-4720; 0.5 nM): 0.336 ± 0.15
surviving fraction (PLX-4720; 1 nM): 0.772 ± 0.089
surviving fraction (PLX-4720; 5 nM): 0.658 ± 0.089
surviving fraction (PLX-4720; 10 nM): 0.809 ± 0.043
surviving fraction (PLX-4720; 50 nM): 0.408 ± 0.14
surviving fraction (PLX-4720; 100 nM): 0.942 ± 0.017
surviving fraction (PLX-4720; 500 nM): 0.865 ± 0.11
surviving fraction (PLX-4720; 1000 nM): 0.988 ± 0.061
surviving fraction ([1]; 0.5 nM): 0.469 ± 0.17
surviving fraction ([1]; 1 nM): 0.941 ± 0.093
surviving fraction ([1]; 5 nM): 0.833 ± 0.065
surviving fraction ([1]; 10 nM): 0.888 ± 0.034
surviving fraction ([1]; 50 nM): 0.542 ± 0.11
surviving fraction ([1]; 100 nM): 0.885 ± 0.023
surviving fraction ([1]; 500 nM): 0.784 ± 0.058
surviving fraction ([1]; 1000 nM): 0.8681 ± 0.0032

T47D BREAST
surviving fraction (PLX-4720; 0.5 nM): 0.81 ± 0.036
surviving fraction (PLX-4720; 1 nM): 0.921 ± 0.0064
surviving fraction (PLX-4720; 5 nM): 0.919 ± 0.043
surviving fraction (PLX-4720; 10 nM): 0.953 ± 0.025
surviving fraction (PLX-4720; 50 nM): 0.914 ± 0.015
surviving fraction (PLX-4720; 100 nM): 1.04 ± 0.06
surviving fraction (PLX-4720; 500 nM): 0.994 ± 0.021
surviving fraction (PLX-4720; 1000 nM): 1.01 ± 0.043
surviving fraction ([1]; 0.5 nM): 0.8871 ± 0.0062
surviving fraction ([1]; 1 nM): 0.999 ± 0.027
surviving fraction ([1]; 5 nM): 0.943 ± 0.018
surviving fraction ([1]; 10 nM): 1.008 ± 0.0089
surviving fraction ([1]; 50 nM): 0.899 ± 0.011
surviving fraction ([1]; 100 nM): 1.06 ± 0.04
surviving fraction ([1]; 500 nM): 0.996 ± 0.075
surviving fraction ([1]; 1000 nM): 0.977 ± 0.07

U2OS BONE
surviving fraction (PLX-4720; 0.5 nM): 0.914 ± 0.029
surviving fraction (PLX-4720; 1 nM): 0.9627 ± 0.0058
surviving fraction (PLX-4720; 5 nM): 0.949 ± 0.007
surviving fraction (PLX-4720; 10 nM): 0.978 ± 0.035
surviving fraction (PLX-4720; 50 nM): 1.06 ± 0.054
surviving fraction (PLX-4720; 100 nM): 1.08 ± 0.059
surviving fraction (PLX-4720; 500 nM): 1.07 ± 0.026
surviving fraction (PLX-4720; 1000 nM): 1.1 ± 0.039
surviving fraction ([1]; 0.5 nM): 1.03 ± 0.016
surviving fraction ([1]; 1 nM): 1.03 ± 0.019
surviving fraction ([1]; 5 nM): 1.02 ± 0.036
surviving fraction ([1]; 10 nM): 1.07 ± 0.042
surviving fraction ([1]; 50 nM): 0.983 ± 0.026
surviving fraction ([1]; 100 nM): 0.996 ± 0.035
surviving fraction ([1]; 500 nM): 0.95 ± 0.03
surviving fraction ([1]; 1000 nM): 0.876 ± 0.03

VCAP PROSTATE
surviving fraction (PLX-4720; 0.5 nM): 0.915 ± 0.03
surviving fraction (PLX-4720; 1 nM): 0.942 ± 0.048
surviving fraction (PLX-4720; 5 nM): 0.934 ± 0.031
surviving fraction (PLX-4720; 10 nM): 0.986 ± 0.074
surviving fraction (PLX-4720; 50 nM): 0.966 ± 0.01
surviving fraction (PLX-4720; 100 nM): 1.11 ± 0.14
surviving fraction (PLX-4720; 500 nM): 1.08 ± 0.061
surviving fraction (PLX-4720; 1000 nM): 1.07 ± 0.023
surviving fraction ([1]; 0.5 nM): 0.925 ± 0.048
surviving fraction ([1]; 1 nM): 0.984 ± 0.082
surviving fraction ([1]; 5 nM): 0.923 ± 0.042
surviving fraction ([1]; 10 nM): 1.01 ± 0.12
surviving fraction ([1]; 50 nM): 0.86 ± 0.079
surviving fraction ([1]; 100 nM): 1.08 ± 0.068
surviving fraction ([1]; 500 nM): 1.05 ± 0.13
surviving fraction ([1]; 1000 nM): 0.975 ± 0.0027

VP229 BREAST
surviving fraction (PLX-4720; 0.5 nM): 0.861 ± 0.03
surviving fraction (PLX-4720; 1 nM): 0.838 ± 0.056
surviving fraction (PLX-4720; 5 nM): 0.861 ± 0.055
surviving fraction (PLX-4720; 10 nM): 0.887 ± 0.019
surviving fraction (PLX-4720; 50 nM): 1.03 ± 0.065
surviving fraction (PLX-4720; 100 nM): 1.1 ± 0.068
surviving fraction (PLX-4720; 500 nM): 1.248 ± 0.0097
surviving fraction (PLX-4720; 1000 nM): 1.25 ± 0.13
surviving fraction ([1]; 0.5 nM): 1.11 ± 0.054
surviving fraction ([1]; 1 nM): 1.16 ± 0.099
surviving fraction ([1]; 5 nM): 1.24 ± 0.14
surviving fraction ([1]; 10 nM): 1.08 ± 0.041
surviving fraction ([1]; 50 nM): 1.03 ± 0.13
surviving fraction ([1]; 100 nM): 0.908 ± 0.043
surviving fraction ([1]; 500 nM): 0.782 ± 0.039
surviving fraction ([1]; 1000 nM): 0.769 ± 0.074

YAMATO SYNOVIAL
surviving fraction (PLX-4720; 0.5 nM): 0.15 ± 0.019
surviving fraction (PLX-4720; 1 nM): 0.825 ± 0.054
surviving fraction (PLX-4720; 5 nM): 0.619 ± 0.023
surviving fraction (PLX-4720; 10 nM): 0.919 ± 0.055
surviving fraction (PLX-4720; 50 nM): 0.281 ± 0.024
surviving fraction (PLX-4720; 100 nM): 1.28 ± 0.086
surviving fraction (PLX-4720; 500 nM): 0.874 ± 0.083
surviving fraction (PLX-4720; 1000 nM): 1.24 ± 0.091
surviving fraction ([1]; 0.5 nM): 0.319 ± 0.026
surviving fraction ([1]; 1 nM): 1.07 ± 0.11
surviving fraction ([1]; 5 nM): 0.9 ± 0.084
surviving fraction ([1]; 10 nM): 1.2 ± 0.044
surviving fraction ([1]; 50 nM): 0.483 ± 0.013
surviving fraction ([1]; 100 nM): 1.1 ± 0.14
surviving fraction ([1]; 500 nM): 0.789 ± 0.064
surviving fraction ([1]; 1000 nM): 0.928 ± 0.049

ZR751 BREAST
surviving fraction (PLX-4720; 0.5 nM): 0.774 ± 0.021
surviving fraction (PLX-4720; 1 nM): 0.834 ± 0.051
surviving fraction (PLX-4720; 5 nM): 0.768 ± 0.062
surviving fraction (PLX-4720; 10 nM): 0.811 ± 0.078
surviving fraction (PLX-4720; 50 nM): 0.783 ± 0.08
surviving fraction (PLX-4720; 100 nM): 0.826 ± 0.099
surviving fraction (PLX-4720; 500 nM): 0.949 ± 0.086
surviving fraction (PLX-4720; 1000 nM): 0.947 ± 0.061
surviving fraction ([1]; 0.5 nM): 0.804 ± 0.14
surviving fraction ([1]; 1 nM): 0.868 ± 0.022
surviving fraction ([1]; 5 nM): 0.806 ± 0.049
surviving fraction ([1]; 10 nM): 0.814 ± 0.056
surviving fraction ([1]; 50 nM): 0.697 ± 0.071
surviving fraction ([1]; 100 nM): 0.846 ± 0.03
surviving fraction ([1]; 500 nM): 0.677 ± 0.03
surviving fraction ([1]; 1000 nM): 0.682 ± 0.011
